{
  "source": "patent US20120238606A1",
  "about": "“[…] AMINE SALTS, PREPARATION METHOD AND USE THEREOF” (JIANGSU HANS PHA[…] CO., LTD., priority 2009, published 2012)",
  "key": {"[1]": {"system": "angiotensin II-induced hypertensive rats", "assay": "Effect on blood pressure in angiotensin II-induced hypertensive rats", "type": "in vivo, Sprague-Dawley rats", "details": "male SD rats, single equimolar dose ig (0.11 mg/kg example 1; 0.123 mg/kg example 2) in 0.5% methyl cellulose, AII 100 ng/kg iv again after 24 hours, Mean±S.E.", "protocol": "The effect of compounds of the present invention on blood pressure in angiotensin II-induced hypertensive rats was investigated.\nMale Sprague-Dawley rats (9-11 weeks old, CLEA Japan, Inc.) were anesthetized by pentobarbital solution (50 mg/kg, ip.) and prepared for surgery. The surgery procedure was as follows: made an incision through the skin on the abdomen and abdominal wall, separated the aorta and vein from the vena cava, occluded blood flow to allow introduction of a polyethylene (PE) tube filled with normal saline containing heparin (200 U/mL) into the vessel, passed the PE tube through the subcutaneous slits, and fixed the PE tube at the back of the neck. After recovery period, the rats were induced hypertension by intravenous administration of 100 ng/kg angiotensin II (AII). The PE tube was combined with a pressure transducer coupled to a blood pressure monitor amplifier (2238, NEC San-ei Instruments). The animals were enrolled based on average systolic blood pressure over 24 hours. All the animals with average systolic blood pressure less than 140 mmHg were excluded from this study, and the others were divided into 2 groups. […] The rats were injected intravenously AII again after 24 hours, and their blood pressure were measured by the monitor. The rat blood pressure inhibition ratios after dosing were calculated. […] The results were expressed as Mean±S.E. (Table 1)."}, "[2]": {"system": "angiotensin II-induced hypertensive dogs", "assay": "Effect on blood pressure in angiotensin II-induced hypertensive dogs", "type": "in vivo", "details": "male Beagle dogs, equimolar dose ig (1.10 mg/kg example 1; 1.23 mg/kg example 2) in 0.5% methyl cellulose, mean±S.E.", "protocol": "The effect of compounds of the present invention on blood pressure in angiotensin II-induced hypertensive dogs was investigated.\nIn this study, male Beagle dogs (weighting 12.0-14.7 kg, KITAYAMA LABES, CO., LTD.) were employed. The dogs were anesthetized by pentobarbital solution (50 mg/kg, ip) and prepared for surgery. The surgery procedure was as follows: made an endotracheal intubation for controlling the breathing, shaved the regions of femoral and back of the neck, fixed the dogs at the dorsal position, used isodine solution (MEIJI SEIKA KAISHA, LTD.) to sterilize the skins, made an incision through the skin on the right femoral region, separated the arteria femoralis, occluded blood flow to allow introduction of a mirror catheter (5 F, MILLER INDUSTRIES) and polyurethane tube into the aorta and vein, respectively, passed the tubes through the subcutaneous slits and fixed the tubes at the back, closed the wall and sutured the skin, and injected intramuscularly the penicillin G potassium (MEIJI SEIKA KAISHA, LTD., 40,000 units) for sterilization. For post-operative care, animals were administered 40,000 units penicillin G potassium intramuscularly once daily for 3 days. There was a recovery period before study ongoing.\nThe animals were singly housed in a small metabolic cage and fasted during the experiment. The mirror catheter was linked to a transducer unit (MILLER INDUSTRIES). Through a DC amplifier (N4777, NEC San-ei Instruments) and a blood pressure monitor amplifier (N4441, NEC San-ei Instruments), the blood pressure was recorded by a recorder (RECTI-HORIZ 8 K, NEC San-Ei Instruments). In order to establish a hypertension model, the dogs were injected intravenously 100 ng/kg AII for 3 or 4 times before dosing test articles. The test articles were an equal molar dose suspended in 0.5% methyl cellulose, and the dosing volume for all animals was 2 mL/kg. After administration, the blood pressure was measured by the monitor. The dog blood pressure inhibition ratios after dosing were calculated, and the results were expressed as mean±S.E. (Table 2)."}},
  "data": [
    {"smiles": "CCOc1nc2cccc(C(=O)O)c2n1Cc1ccc(-c2ccccc2-c2noc(=O)[nH]2)cc1.NCCO", "note": "[Product of example 1, Azilsartan ethanolamine]", "values": [
      {"measurement": "Inhibition ratios (%) (blood pressure inhibition ratio after dosing)", "setting": "[1]", "result": "57.4 ± 6.7", "unit": "%"},
      {"measurement": "Inhibition ratios (%) 10 hr post dosing", "setting": "[2]", "result": "82.7 ± 7.3", "unit": "%"},
      {"measurement": "Inhibition ratios (%) 24 hr post dosing", "setting": "[2]", "result": "61.6 ± 4.8", "unit": "%"}
    ]},
    {"smiles": "CCOc1nc2cccc(C(=O)O)c2n1Cc1ccc(-c2ccccc2-c2noc(=O)[nH]2)cc1.C[N+](C)(C)CCO", "note": "[Product of example 2, Azilsartan choline]", "values": [
      {"measurement": "Inhibition ratios (%) (blood pressure inhibition ratio after dosing)", "setting": "[1]", "result": "54.3 ± 5.1", "unit": "%"},
      {"measurement": "Inhibition ratios (%) 10 hr post dosing", "setting": "[2]", "result": "79.3 ± 8.6", "unit": "%"},
      {"measurement": "Inhibition ratios (%) 24 hr post dosing", "setting": "[2]", "result": "59.5 ± 6.3", "unit": "%"}
    ]}
  ]
}
